According to patent publication US8673617B2, “Culture medium for Haemophilus influenzae type B” (Sanofi Pasteur SA, priority 2007, dated 2014):

Legend:
[1] = system: Haemophilus influenzae serotype b; experiment: PRP production in liquid garden pea peptone-based culture medium as a function of heme source (sandwich ELISA on supernatant); assay type: cell-based; conditions: for Mean PRP / PRP in mg/l Assay 1 / PRP in mg/l Assay 2: garden pea medium, 16 h
Procedure: The production of PRP obtained after 16 hours of bacterial culture in liquid plant peptones-based culture media in which the heme source was either hemin or protoporphyrin IX of animal origin (porcine protoporphyrin) in disodium salt form, or protoporphyrin IX of purely synthetic origin in disodium salt form was compared. […] An enzymatic hydrolysate of garden pea peptone provided by Kerry (Hy pea 7404) and a wheat peptone provided by Organotechnie (19559) were tested at a concentration in the culture medium equivalent to 0.87 g/l of protein nitrogen. By reference to the current methods for the production of PRP, PRP production was also measured in a medium that contains a peptone of animal origin, such as casein hydrolysate (HAC) provided by Solabia at a concentration in the medium equivalent to 0.87 g/l with increased concentrations of hemin (see table III).
(§1) 1.1) Preparation of the Media • 1.1.1. Stock solution of β-NAD (Fluka) at 1 g/l in water which was ultrafiltered and then sterilized by filtration through 0.22 μm. • 1.1.2. Stock solution of hemin (Sigma) at 0.25 g/l in water was ultrafiltered, comprising 5 ml of 25% aqueous ammonia (Cooper) to aid dissolution. The stock solution was sterilized by filtration through 0.22 μm. • 1.1.3. Stock solution of porcine protoporphyrin IX (Sigma) at 0.25 g/l in ultrafiltered water comprising 5 ml of 25% aqueous ammonia (Cooper) in order to facilitate the dissolution. The stock solution was sterilized by filtration through 0.22 μm. • 1.1.4. Stock solution of synthetic protoporphyrin IX at 0.25 g/l in ultrafiltered water comprising 5 ml of 25% aqueous ammonia (Cooper) in order to facilitate the dissolution. The stock solution was also heated to 80° C. in a water bath with stirring in order to complete the dissolution before being sterilized by filtration through 0.22 μm. The protoporphyrin IX, in disodium salt form, was synthesized according to the method described in the U.S. provisional patent application Ser. No. 12/057,574, filed Mar. 28, 2008 and application Ser. No. 60/943,735 and filed on Jun. 13, 2007 using the steps which are described in scheme 2. • The stock solutions of hemin and protoporphyrin IX were checked for their respective contents of active compounds after sterilizing filtration. The protoporphyrin IX and hemin contents were determined by Reversed Phase High Performance Liquid Chromatography (RP-HPLC). The chromatographic chain comprises a twin head pump module allowing the formation of a binary gradient, a programmable automatic injector, a diode array UV detector and a chromatographic column of the type Synergi 4 μm, Polar RP-80A (150×4.6) mm, ref 00F-4336-E0, Phenomenex. • The stock solution of hemin (Sigma) to be checked after filtration was diluted ⅓ in distilled water. The stock solutions of porcine protoporphyrin IX (Sigma) and of synthetic protoporphyrin IX to be checked after filtration were diluted ¼ in distilled water. In parallel, a calibration series was prepared in ammoniated water ranging from 0.025 g/l to 0.125 g/l of protoporphyrin IX from porcine protoporphyrin IX from Sigma (ref: 25838-5) and a calibration series ranging from 0.050 g/l to 0.150 g/l of hemin from hemin from Sigma (ref: H5533-256). The samples to be checked and the various solutions of the calibration series were injected in a volume of 20 μl (for the hemin solutions and samples) and of 5 μl (for the protoporphyrin IX solutions and samples). The initial mobile phase consisting of a volume for volume mixture of acetonitrile and 10 mM KH2PO4 pH 2.5 is set at a flow rate of 1 ml/min. A discontinuous gradient was then produced from this mobile phase in order to separate the molecules of interest which are detected at a wavelength of 400 nm. […]

[2] = system: Haemophilus influenzae serotype b; experiment: PRP production in liquid wheat peptone-based culture medium as a function of heme source (sandwich ELISA on supernatant); assay type: cell-based; conditions: for Mean PRP / PRP in mg/l Assay 1 / PRP in mg/l Assay 2: wheat medium, 16 h
Procedure: The production of PRP obtained after 16 hours of bacterial culture in liquid plant peptones-based culture media in which the heme source was either hemin or protoporphyrin IX of animal origin (porcine protoporphyrin) in disodium salt form, or protoporphyrin IX of purely synthetic origin in disodium salt form was compared. The hemin and protoporphyrin IX concentration ranges in the culture media varied from about 0.010 g/l to about 2 g/l so as to obtain PRP titration curves as a function of the heme source tested and as a function of the plant peptone tested. An enzymatic hydrolysate of garden pea peptone provided by Kerry (Hy pea 7404) and a wheat peptone provided by Organotechnie (19559) were tested at a concentration in the culture medium equivalent to 0.87 g/l of protein nitrogen. By reference to the current methods for the production of PRP, PRP production was also measured in a medium that contains a peptone of animal origin, such as casein hydrolysate (HAC) provided by Solabia at a concentration in the medium equivalent to 0.87 g/l with increased concentrations of hemin (see table III).
as §1

[3] = porcine protoporphyrin IX 7.48 μg/l
[4] = porcine protoporphyrin IX 37.4 μg/l
[5] = porcine protoporphyrin IX 74.8 μg/l
[6] = porcine protoporphyrin IX 187 μg/l
[7] = porcine protoporphyrin IX 374 μg/l
[8] = porcine protoporphyrin IX 748 μg/l
[9] = porcine protoporphyrin IX 1122 μg/l
[10] = porcine protoporphyrin IX 1496 μg/l

Q: protoporphyrin IX was tested. Which “protoporphyrin IX concentration to obtain about 400 mg/l of PRP” value ([1]; garden pea peptone and protoporphyrin IX-based medium) did it give?
A: about 100 μg/l

Q: What about the “times less protoporphyrin IX than hemin required for maximum PRP production” value ([1]; garden pea peptone medium) of the same substance?
A: About 12.5 times

Q: And the “heme source concentration required for optimum / maximum PRP production” value ([1]; garden pea peptone medium (FIG. 1))?
A: about 200 μg/l

Q: And the “optimum PRP production” value ([1]; garden pea peptone medium, about 200 μg/l)?
A: ≈ 480 mg/l

Q: What about the “PRP concentration in the culture supernatant at maximum production” value ([1]; plant peptone medium, 100 to 200 μg/l) of the same substance?
A: 0.4 g/L

Q: And the “production of PRP (in words)” value ([1]; plant peptone medium, heme source at 10 μg/l)?
A: significant production of PRP

Q: What about the “production of PRP” value ([1]; plant peptone medium, heme source at 50 μg/l (FIGS. 1 and 2)) of the same substance?
A: ≥ 100 µg/L

Q: And the “protoporphyrin IX concentration to obtain about 400 mg/l of PRP” value ([2]; wheat peptone and protoporphyrin IX-based medium)?
A: about 100 μg/l

Q: And the “times less protoporphyrin IX than hemin required for maximum PRP production” value ([2]; wheat peptone medium)?
A: About 15 times

Q: What about the “heme source concentration required for optimum / equivalent PRP production” value ([2]; wheat peptone medium (FIG. 2)) of the same substance?
A: about 100 μg/l

Q: What about the “optimum PRP production” value ([2]; wheat peptone medium, about 100 μg/l) of the same substance?
A: ≈ 400 mg/l

Q: What does the source list for “protoporphyrin IX [Porcine protoporphyrin IX]”?
A: Mean PRP [1, 3]: 15.6 mg/L; PRP in mg/l Assay 1 [1, 3]: 15.1 mg/L; PRP in mg/l Assay 2 [1, 3]: 16.1 mg/L; Mean PRP [1, 4]: 146 mg/L; PRP in mg/l Assay 1 [1, 4]: 143 mg/L; PRP in mg/l Assay 2 [1, 4]: 149 mg/L; Mean PRP [1, 5]: 349 mg/L; PRP in mg/l Assay 1 [1, 5]: 344 mg/L; PRP in mg/l Assay 2 [1, 5]: 354 mg/L; Mean PRP [1, 6]: 470 mg/L; PRP in mg/l Assay 1 [1, 6]: 450 mg/L; PRP in mg/l Assay 2 [1, 6]: 490 mg/L; Mean PRP [1, 7]: 423.5 mg/L; PRP in mg/l Assay 1 [1, 7]: 415 mg/L; PRP in mg/l Assay 2 [1, 7]: 432 mg/L; Mean PRP [1, 8]: 509 mg/L; PRP in mg/l Assay 1 [1, 8]: 495 mg/L; PRP in mg/l Assay 2 [1, 8]: 523 mg/L; Mean PRP [1, 9]: 521 mg/L; PRP in mg/l Assay 1 [1, 9]: 492 mg/L; PRP in mg/l Assay 2 [1, 9]: 550 mg/L; Mean PRP [1, 10]: 479 mg/L; PRP in mg/l Assay 1 [1, 10]: 466 mg/L; PRP in mg/l Assay 2 [1, 10]: 493 mg/L; Mean PRP [2, 3]: 26.9 mg/L; PRP in mg/l Assay 1 [2, 3]: 25.5 mg/L; PRP in mg/l Assay 2 [2, 3]: 28.3 mg/L; Mean PRP [2, 4]: 142.5 mg/L; PRP in mg/l Assay 1 [2, 4]: 136 mg/L; PRP in mg/l Assay 2 [2, 4]: 149 mg/L; Mean PRP [2, 5]: 364 mg/L; PRP in mg/l Assay 1 [2, 5]: 429 mg/L; PRP in mg/l Assay 2 [2, 5]: 299 mg/L; Mean PRP [2, 6]: 430 mg/L; PRP in mg/l Assay 1 [2, 6]: 452 mg/L; PRP in mg/l Assay 2 [2, 6]: 408 mg/L; Mean PRP [2, 7]: 385.5 mg/L; PRP in mg/l Assay 1 [2, 7]: 397 mg/L; PRP in mg/l Assay 2 [2, 7]: 374 mg/L; Mean PRP [2, 8]: 388 mg/L; PRP in mg/l Assay 1 [2, 8]: 399 mg/L; PRP in mg/l Assay 2 [2, 8]: 377 mg/L; Mean PRP [2, 9]: 387.5 mg/L; PRP in mg/l Assay 1 [2, 9]: 446 mg/L; PRP in mg/l Assay 2 [2, 9]: 329 mg/L; Mean PRP [2, 10]: 373.5 mg/L; PRP in mg/l Assay 1 [2, 10]: 464 mg/L; PRP in mg/l Assay 2 [2, 10]: 283 mg/L
